Assays:
TNCB-induced dermatitis = experiment: 2,4,6-Trinitrochlorobenzene (TNCB)-induced dermatitis model, ear edema; assay type: in vivo, male BALB/c mouse; details: test compound 1 w/v % (FK506 0.1 w/v %), 20 μL applied to auricle, 24 hours after induction
Method: (§1) The test compound was adjusted to 1 w/v % when in use with a solvent (acetone:olive oil=1:1, v/v)) and put to use. FK506 (control substance) was adjusted to 0.1 w/v % and used.
The fur on the abdomen of male BALB/c mouse was shaved with a hair clipper, and 100 μL of 7 w/v % TNCB sensitizing liquid (solvent was acetone:olive oil=4:1, v/v) was applied. Six days after the sensitization, the thickness of the right auricle was measured with a micrometer (pre-value). After the measurement, 10 μL of 1 w/v % TNCB challenge liquid (solvent was acetone:olive oil=1:9, v/v) was applied to the inside of the right auricle to induce ear edema. About 5 minutes after the application of the challenge liquid, 20 μL of the test compound was applied to the outside of the auricle.
After 24 hours from the induction of ear edema, the thickness of the right auricle was measured by a method similar to the pre-value (post-value). The difference between the post-value and the pre-value of ear edema by each test compound was determined, based on which the inhibition rate was calculated. The activity of each test compound was calculated with the ear edema inhibition rate of FK506 as 1.0 (ear edema inhibition rate of each test compound/ear edema inhibition rate of FK506).

OVA-induced dermatitis = experiment: Ovalbumin (OVA)-induced dermatitis model, ear edema; assay type: in vivo, male ICR mouse; set-up: key: ratio of compound's ear edema inhibition rate to FK506's (FK506 = 1.0); details: test compound 1 w/v % (FK506 0.1 w/v %), 20 μL applied to auricle, 24 hours after induction
Method: as §1
Male ICR mouse was sensitized by the administration of 0.2 mL of OVA-hydroxide aluminum gel suspension to the abdominal cavity. After 14 days from the sensitization, the thickness of the right auricle was measured with a micrometer (pre-value). After the measurement, 20 μL of 0.5 μg/mL OVA challenge liquid (solvent was physiological saline) was subcutaneously administered to the inside of the auricle to induce ear edema. About 5 minutes after the administration of the challenge liquid, 20 μL of the test compound was applied to the outside of the auricle. After 24 hours from the induction of ear edema, the thickness of the right auricle was measured by a method similar to the pre-value (post-value). The difference between the post-value and the pre-value of ear edema by each test compound was determined, based on which the inhibition rate was calculated. The activity of each test compound was calculated with the ear edema inhibition rate of FK506 as 1.0 (ear edema inhibition rate of each test compound/ear edema inhibition rate of FK506).

Row | Structure (SMILES) | TNCB-induced dermatitis, with ear edema inhibition rate of FK506 as 1.0 (TNCB-induced dermatitis) | OVA-induced dermatitis, with ear edema inhibition rate of FK506 as 1.0 (OVA-induced dermatitis)
1 | CCCCCOc1ccccc1C(=NN(C)C)n1ccnc1 [Compound No. 24, N′-[1-imidazol-1-yl-1-(2-pentyloxyphenyl)methylidene]-N,N-dimethylhydrazine] | 0.5 | 0.9
2 | CN(C)N=C(c1ccccc1OCc1ccc(F)cc1)n1ccnc1 [Compound No. 35, N′-[1-[2-(4-fluorobenzyloxy)phenyl]-1-imidazol-1-ylmethylidene]-N,N-dimethylhydrazine] | 0.6 | 0.9
3 | CN(C)N=C(c1ccccc1OCc1ccc(Cl)cc1)n1ccnc1 [Compound No. 38, N′-[1-[2-(4-chlorobenzyloxy)phenyl]-1-imidazol-1-ylmethylidene]-N,N-dimethylhydrazine] | 0.7 | 1.1
4 | CN(C)N=C(c1ccccc1OCc1cccc(Cl)c1)n1ccnc1 [Compound No. 40, N′-[1-[2-(3-chlorobenzyloxy)phenyl]-1-imidazol-1-ylmethylidene]-N,N-dimethylhydrazine] | 0.7 | 1.0
5 | CCc1ccc(COc2ccccc2C(=NN(C)C)n2ccnc2)cc1 [Compound No. 48, N′-[1-[2-(4-ethylbenzyloxy)phenyl]-1-imidazol-1-ylmethylidene]-N,N-dimethylhydrazine] | 0.5 | 1.0
6 | CN(C)N=C(c1ccccc1OCCc1ccccc1)n1ccnc1 [Compound No. 56, N′-[1-imidazol-1-yl-1-(2-phenethoxyphenyl)methylidene]-N,N-dimethylhydrazine] | 0.7 | 1.2
7 | CN(C)N=C(c1ccccc1OCCc1ccc(F)cc1)n1ccnc1 [Compound No. 57, N′-[1-[2-[2-(4-fluorophenyl)ethoxy]phenyl]-1-imidazol-1-ylmethylidene]-N,N-dimethylhydrazine] | 0.8 | 1.8
8 | COc1ccc(CCOc2ccccc2C(=NN(C)C)n2ccnc2)cc1 [Compound No. 58, N′-[1-imidazol-1-yl-1-[2-[2-(4-methoxyphenyl)ethoxy]phenyl]methylidene]-N,N-dimethylhydrazine] | 0.9 | 1.0
9 | CN(C)N=C(c1ccccc1OCC1COc2ccccc2O1)n1ccnc1 (stereo not drawn) [Compound No. 73, N′-[1-[2-(2,3-dihydrobenzo[1,4]dioxin-2-ylmethoxy)phenyl]-1-imidazol-1-ylmethylidene]-N,N-dimethylhydrazine] | 0.7 | 1.1
10 | CN(C)N=C(c1ccccc1SCCc1ccccc1)n1ccnc1 [Compound No. 84, N′-[1-imidazol-1-yl-1-(2-phenethylthiophenyl)methylidene]-N,N-dimethylhydrazine] | 0.9 | 1.4
11 | CN(C)N=C(c1cccn1CCCOc1ccccc1)n1ccnc1 [Compound No. 108, N′-[1-imidazol-1-yl-1-[1-(3-phenoxypropyl)pyrrol-2-yl]methylidene]-N,N-dimethylhydrazine] | 0.9 | 1.4
12 | CCN(C)N=C(c1ccccc1OCc1ccc(F)cc1)n1ccnc1 [Compound No. 113, N-ethyl-N′-[1-[2-(4-fluorobenzyloxy)phenyl]-1-imidazol-1-ylmethylidene]-N-methylhydrazine] | 0.6 | 1.7
